Activity calls are given as the source filed them. No cut-off for these calls is given here.
Assays:
[1] = test system: Felis catus; experiment: Inhibition of 2 Hz electric current-induced cardioaccelerator nerve stimulation in iv dosed cat by cardiotachometer analysis; type: functional
[2] = test system: Felis catus; experiment: Inhibition of 2 Hz electric current-induced cardioaccelerator nerve stimulation in iv dosed cat by cardiotachometer analysis in presence of 0.2 mg/kg, iv haloperidol; type: functional, organism-based; design: dose 0.2 mg/kg; conditions: at 0.2 mg/kg
[3] = test system: Canis familiaris; experiment: Induction of emesis in sc dosed dog; type: functional; conditions: Canis lupus familiaris
[4] = test system: Columba livia; experiment: Induction of pecking in pigeon at 1.62 umol/kg, im; type: functional, organism-based
[5] = species: Felis catus; experiment: Agonist activity at dopamine receptor in cat right atrium assessed as inhibition of cardiaccelerator nerve stimulation rate by cardiotachometer analysis; type: tissue-based; conditions: Cardiac atrium
[6] = test system: Rattus norvegicus; experiment: Induction of stereotyped behaviour in sc dosed Sprague-Dawley rat; type: functional, organism-based
[7] = test system: Rattus norvegicus; experiment: Induction of stereotyped behaviour in sc dosed Sprague-Dawley rat assessed as onset of action; type: functional
[8] = test system: Rattus norvegicus; experiment: Induction of stereotyped behaviour in sc dosed Sprague-Dawley rat assessed as duration of action; type: functional
[9] = test system: Rattus norvegicus; experiment: Induction of circling behaviour in sc dosed Sprague-Dawley rat assessed as reversal of spontaneous ipsilateral to contralateral circling response; type: functional, organism-based
[10] = test system: Rattus norvegicus; experiment: Induction of circling behaviour in sc dosed Sprague-Dawley rat assessed as onset of action; type: functional
[11] = test system: Rattus norvegicus; experiment: Induction of circling behaviour in sc dosed Sprague-Dawley rat assessed as duration of action; type: functional
[12] = test system: Rattus norvegicus; experiment: Induction of circling behaviour in sc dosed Sprague-Dawley rat in presence of 0.8 mg/kg haloperidol; type: functional, organism-based; design: dose 0.8 mg/kg
[13] = test system: Rattus norvegicus; experiment: Induction of circling behaviour in sc dosed Sprague-Dawley rat in presence of 5 mg/kg aceperone; type: functional, organism-based; design: dose 5 mg/kg
[14] = test system: Rattus norvegicus; experiment: Induction of circling behaviour in sc dosed Sprague-Dawley rat in presence of 5 mg/kg propranolol; type: functional, organism-based; design: dose 5 mg/kg
[15] = test system: Felis catus; experiment: Inhibition of 2 Hz electric current-induced cardioaccelerator nerve stimulation in cat at 10 umol/kg, iv by cardiotachometer analysis; type: functional, organism-based
[16] = test system: Felis catus; experiment: Inhibition of 10 Hz electric current-induced cardioaccelerator nerve stimulation in iv dosed cat by cardiotachometer analysis; type: functional, organism-based
[17] = test system: Felis catus; experiment: Hypotensive activity in iv dosed cat; type: functional, organism-based
[18] = test system: Rattus norvegicus; experiment: Induction of hyperactivity in Sprague-Dawley rat at 2.5 to 20 mg/kg, sc; type: functional, organism-based
[19] = species: Felis catus; experiment: Agonist activity at dopamine receptor in cat right atrium assessed as inhibition of cardiaccelerator nerve stimulation rate at 10 umol/L by cardiotachometer analysis; type: tissue-based; conditions: Cardiac atrium
[20] = test system: Columba livia; experiment: Induction of pecking in im dosed pigeon; type: functional, organism-based
[21] = test system: Felis catus; experiment: Effect on heart rate in iv dosed cat; type: functional, organism-based
[22] = test system: Rattus norvegicus; experiment: Induction of stereotyped behaviour in Sprague-Dawley rat at 2.5 to 20 mg/kg, sc; type: functional, organism-based
[23] = test system: Rattus norvegicus; experiment: Induction of circling behaviour in Sprague-Dawley rat at 2.5 to 20 mg/kg, sc; type: functional, organism-based
[24] = test system: Rattus norvegicus; experiment: Induction of hyperactivity in Sprague-Dawley rat at 3.13 to 50 ug administered into caudate putamen; type: functional, organism-based
[25] = test system: Rattus norvegicus; experiment: Induction of stereotyped behaviour in intrastriatally dosed Sprague-Dawley rat at 3.13 to 50 ug administered into caudate putamen; type: functional, organism-based
[26] = test system: Rattus norvegicus; experiment: Induction of hyperactivity in Sprague-Dawley rat at 3.13 to 50 ug administered into nucleus accumbens; type: functional, organism-based
[27] = test system: Rattus norvegicus; experiment: Induction of stereotyped behaviour in intrastriatally dosed Sprague-Dawley rat at 3.13 to 50 ug administered into nucleus accumbens; type: functional, organism-based

CN1CCc2cccc3c2[C@H]1Cc1ccc(O)c(O)c1-3.CN1CCc2cccc3c2[C@H]1Cc1ccc(O)c(O)c1-3.Cl.Cl.O [APOMORPHINE HYDROCHLORIDE]
ED50 [1]: 0.1 µmol/kg
inhibition [2]: inactive
ED50 [3]: 0.13 µmol/kg
Activity [4]: Active
ED50 [5]: 43 nM
Activity [6]: Dose-dependent effect
Time [7]: <5 min
Time [8]: 20 min
Activity [9]: Active
Time [10]: 3 min
Time [11]: 40 min
Activity [12]: inactive
Activity [13]: Active
Activity [14]: Active

CCCCN(CCCC)CCc1ccc(O)c(O)c1
inhibition [15]: inactive
inhibition [16]: inactive
Activity [17]: inactive
Activity [18]: inactive
inhibition [19]: inactive
Activity [20]: inactive
Activity [21]: inactive
Activity [22]: inactive
Activity [23]: inactive
Activity [24]: inactive
Activity [25]: inactive
Activity [26]: inactive
Activity [27]: inactive

Reference: ChEMBL document CHEMBL3244265, “Preparation and biological actions of some symmetrically N,N-disubstituted dopamines” (J Med Chem, 1978)
